In data set [1] the test system is MCF-10A. Description: Clonogenic survival assay. In kind it is cell-based, human. The method, then: Clonogenic survival was assessed by colony counting at 9 days. […] Viable cells were scored and enumerated by trypan blue exclusion at 7 days. Means with SD are shown (MCF-10A: n = 3, primary T cell 1: n = 2). […] Fold increases of SCE per chromosome compared with no treatment or 0.5 μM cisplatin are shown for each cell type. Approximately 50 metaphases were counted for each cell. Error bars depict the mean with SD. Asterisks designate statistical significance for unpaired t-test at P < 0.0001. C. […] One hundred metaphases were counted for each exposure. Fold increases of chromatid-type aberrations per chromosome compared with no treatment or 0.5 μM cisplatin are shown for each cell type. The y-axis is the number of total chromatid-type aberrations per chromosome for each metaphase counted. Error bars indicate mean with SEM. The P-values were calculated using unpaired t-test.
(§1) Human mammary epithelial cell lines used included non-tumorigenic diploid MCF-10A, HMEC-hTERT and tumorigenic MDA-MB-468 (basal) and MCF-7 (luminal). […] Blood samples were obtained from normal donor participants. The participants provided written informed consent to IRB protocol #95–054 approved by the Institutional Review Board at MSKCC. The original signed consent is then sent to the research participant’s medical record and a copy of the consent is given to the participant. The EBV-transformed B-lymphocyte cell line (EBV-BL) was generated by transformation of peripheral blood mononuclear cells (PBMC) with the B95.8 strain of EBV, as previously described. Primary T cells were generated from PBMC from two normal donors by non-specific activation with phytohemagglutinin and cultured in RPMI1640 and human serum AB for 4–14 days before use. E14 mES cell line was provided by M. Hooper, Brca1^-/- 236.44 mES cell line was provided by B. H. Koller, Brca2^lex1/lex2 mES cell line was provided by P. Hasty and Lexicon Genetics. E14 wild-type, Brca1^-/- 236.44, and Brca2^lex1/lex2 mES cell lines were cultured in standard ES media. Brca1^-/- 236.44 cells express a BRCA1 peptide deleted for sequences encoded by exon 11 [52], while Brca2^lex1/lex2 cells express a BRCA2 peptide deleted for the terminal exon 27 [53]. Olaparib was synthesized in the MSKCC Organic chemistry core facility. Veliparib and BSI-201 were purchased from Chemie Tek. The compounds were dissolved in DMSO and PBS. For clonogenic survival assays, MCF-10A (1000 cells), HMEC-hTERT (1000 cells), MDA-MB-468 (1500 cells) and mouse ES cell (2000 cells) were seeded, vehicle control or inhibitors were added at the indicated concentration 24 hours after seeding and changed every three days for continuous treatment. At 7–14 days, colonies were fixed with methanol and stained with Giemsa. For EBV-BL (6 × 10^6) and primary T cells (3.6 × 10^6) were continuously exposed to the indicated concentration of drug for 10 days at 0.6 × 10^6 cells/ml. Viable cells were scored by trypan blue exclusion.

Data set [2] has as its system Brca1^-/- 236.44 mES cells. Description: Clonogenic survival assay, mES cells. In kind it is cell-based, mouse.
Description: as §1, with “Olaparib was synthesized in the MSKCC Organic chemistry core facility.” left out

Data set [3] deals with Brca2^lex1/lex2 mES cells. Description: Clonogenic survival assay, mES cells. The data set is classed as cell-based, mouse.
Description: as §1, with “Olaparib was synthesized in the MSKCC Organic chemistry core facility.” left out

Data set [4] has as its system repair-proficient human cells. Description: SCE assay, summary over the human cell types. In kind it is cell-based. As to conditions: primary T cells; brief exposure. The source says:
(§2) Human mammary epithelial cell lines used included non-tumorigenic diploid MCF-10A, HMEC-hTERT and tumorigenic MDA-MB-468 (basal) and MCF-7 (luminal). […] Blood samples were obtained from normal donor participants. The participants provided written informed consent to IRB protocol #95–054 approved by the Institutional Review Board at MSKCC. The original signed consent is then sent to the research participant’s medical record and a copy of the consent is given to the participant. The EBV-transformed B-lymphocyte cell line (EBV-BL) was generated by transformation of peripheral blood mononuclear cells (PBMC) with the B95.8 strain of EBV, as previously described. Primary T cells were generated from PBMC from two normal donors by non-specific activation with phytohemagglutinin and cultured in RPMI1640 and human serum AB for 4–14 days before use. E14 mES cell line was provided by M. Hooper, Brca1^-/- 236.44 mES cell line was provided by B. H. Koller, Brca2^lex1/lex2 mES cell line was provided by P. Hasty and Lexicon Genetics. E14 wild-type, Brca1^-/- 236.44, and Brca2^lex1/lex2 mES cell lines were cultured in standard ES media. […] Viable cells were scored by trypan blue exclusion.
To prepare metaphase spreads, exponentially growing cells were treated with 0.1–0.3 μg/ml of colcemid for 1–6 hr. […] To visualize SCEs, the doubling time for each cell type was determined. […]

Data set [5] concerns repair-proficient human cells. Description: Chromatid-type aberrations, summary over the human cell types. The data set is classed as cell-based. On the procedure:
To prepare metaphase spreads, exponentially growing cells were treated with 0.1–0.3 μg/ml of colcemid for 1–6 hr. Cells were collected and incubated in hypotonic solution (0.56% KCl), fixed in methanol: acetic acid (3:1), spotted to slides and air-dried. To measure chromosomal aberrations, the slides were stained with 2% Giemsa/Sorensen’s buffer. To visualize SCEs, the doubling time for each cell type was determined. Cells were incubated with 10 μM BrdU for two cell cycles. After metaphase spreads were prepared, the slides were treated with 0.5 μg/ml Hoechst 33258. The slides were exposed to black light for 20–60 min, incubated at 60°C for 2 hr, and stained in 4–10% Giemsa/Sorensen’s buffer.

Data set [6] concerns human cells. Description: Olaparib cytotoxicity on continuous exposure, summary over cell types. As to conditions: typical value over cell types. In kind it is cell-based.
Description: as §2, with “media. Brca1^-/- 236.44 cells express a BRCA1 peptide deleted for sequences encoded by exon 11 [52], while Brca2^lex1/lex2 cells express a BRCA2 peptide deleted for the terminal exon 27 [53].” for “media.”

Setting [7] is: Mus musculus, read-out: IC50 (clonogenic survival).

The record followed here is article PMC4948780, “PARP Inhibitors in Clinical Use Induce Genomic Instability in Normal Human Cells” (PLoS ONE, 2016).

The structures appear in SMILES notation.

In the case of `O=C(c1cc(Cc2n[nH]c(=O)c3ccccc23)ccc1F)N1CCN(C(=O)C2CC2)CC1` [olaparib], the “survival (mean ± SD)” value in data set [1] (1 μM) came out at 95.7 ± 1.9%. Further, the IC50 (as a rule, the concentration needed to halve the response being measured) in data set [1] (Homo sapiens, continuous exposure, clonogenic survival assay, read-out: IC50 (cell survival)) is 4.7 µM; in data set [2] (setting [7]), 0.0025 µM; in data set [3] (setting [7]) it was 0.013 µM; in data set [6], more than 2 µM. The “enhanced sensitivity of cells lacking wild-type BRCA1 vs wild-type cells” value in data set [2] (ratio of IC50, wild-type / Brca1^-/- 236.44) was found to be 240 fold. For the same compound, the “enhanced sensitivity of cells lacking wild-type BRCA2 vs wild-type cells” value in data set [3] (ratio of IC50, wild-type / Brca2^lex1/lex2) stood at 46 fold. Besides, the “average SCEs per metaphase” value in data set [4] is on record as ~ 40. Also, in data set [5] (clinically relevant doses (abstract)), the “increase of chromatid aberrations” value was 2-6 fold. The compound further gave a radial chromosomes identified in data set [5] (olaparib-treated cells, all cell types (1 in untreated)) of 12.
